Assay results from ChEMBL document CHEMBL1201862, “PubChem BioAssay data set” (2004).
Blank lines part the entries; values can stand above or below the molecule they belong to. Calls of active or inactive are those of the source.

Columns and labels:
Bcl-2-related protein A1 = target: T1, Bcl-2-related protein A1 (Mus musculus, UniProt Q07440); format: functional;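 further: confirmatory dose–response counterscreen on Bfl-1, used to check hits from a UBC13 polyubiquitin inhibitor campaign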
T1 sequence (Q07440 whole entry): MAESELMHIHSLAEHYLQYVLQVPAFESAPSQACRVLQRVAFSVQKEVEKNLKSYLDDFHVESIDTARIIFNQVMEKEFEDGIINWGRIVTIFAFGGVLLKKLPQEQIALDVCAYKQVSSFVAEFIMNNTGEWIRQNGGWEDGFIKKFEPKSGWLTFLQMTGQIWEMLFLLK

[1] = target: T2, Ubiquitin-conjugating enzyme E2 N (Homo sapiens, UniProt P61088); format: functional
T2 sequence (P61088 whole entry): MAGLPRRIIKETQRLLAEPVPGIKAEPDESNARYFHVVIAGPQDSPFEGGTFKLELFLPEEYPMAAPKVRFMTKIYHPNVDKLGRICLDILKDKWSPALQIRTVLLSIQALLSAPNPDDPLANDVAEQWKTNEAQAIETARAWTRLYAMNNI

[2] = target: T2, Ubiquitin-conjugating enzyme E2 N; format: functional; remark: listed apart in the source
[3] = HepG2 cell cytotoxicity, dose response, cytotoxicity control, ATP luminescence, cherry-pick, set 6 (AID 1053125); format: functional, cell-based
cells [4] = conditions: A549
cells [5] = conditions: HEK293
[6] = target: T3, G-protein coupled receptor 55 (Homo sapiens, UniProt Q9Y2T6); experiment: GPR55 antagonists blocking LPI-driven arrestin recruitment, primary screen, imaging, U2OS, beta-arrestin-GFP, LPI agonist (AID 2013); format: functional;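 further: antagonist potency measured as reduced agonist-driven arrestin aggregation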
T3 sequence (Q9Y2T6 whole entry): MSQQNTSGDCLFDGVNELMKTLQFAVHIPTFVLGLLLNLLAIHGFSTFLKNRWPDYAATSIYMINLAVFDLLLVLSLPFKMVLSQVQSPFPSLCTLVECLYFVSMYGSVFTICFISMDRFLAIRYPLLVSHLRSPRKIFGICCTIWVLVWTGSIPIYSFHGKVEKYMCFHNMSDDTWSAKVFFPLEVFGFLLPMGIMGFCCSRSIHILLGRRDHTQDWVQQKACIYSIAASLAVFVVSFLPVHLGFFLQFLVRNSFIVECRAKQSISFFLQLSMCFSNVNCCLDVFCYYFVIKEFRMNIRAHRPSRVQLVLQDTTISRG

Cannabinoid receptor 1 [7] = target: T4, Cannabinoid receptor 1 (Homo sapiens, UniProt P21554); experiment: SAR analysis of antagonists of the Cannabinoid Receptor 1 using an Image-Based Assay - Set 2. [Related pubchem assays (depositor defined):AID2013, AID2026]; format: functional
T4 sequence (P21554 whole entry): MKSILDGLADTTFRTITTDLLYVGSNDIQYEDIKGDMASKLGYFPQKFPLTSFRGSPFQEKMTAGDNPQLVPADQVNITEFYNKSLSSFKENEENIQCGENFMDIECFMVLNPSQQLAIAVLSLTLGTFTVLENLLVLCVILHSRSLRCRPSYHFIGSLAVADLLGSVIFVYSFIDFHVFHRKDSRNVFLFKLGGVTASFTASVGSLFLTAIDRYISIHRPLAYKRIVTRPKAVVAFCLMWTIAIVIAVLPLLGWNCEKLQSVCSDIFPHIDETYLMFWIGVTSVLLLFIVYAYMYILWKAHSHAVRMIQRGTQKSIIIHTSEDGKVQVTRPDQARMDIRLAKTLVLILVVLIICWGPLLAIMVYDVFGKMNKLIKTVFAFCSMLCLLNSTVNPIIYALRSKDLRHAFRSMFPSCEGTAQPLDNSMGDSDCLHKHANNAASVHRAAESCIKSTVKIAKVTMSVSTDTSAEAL

[8] = target: T5, G-protein coupled receptor 35 (Homo sapiens, UniProt Q9HC97); experiment: SAR analysis of Agonists of the GPR35 Receptor using an Image-Based Assay - Set 2. [Related pubchem assays (depositor defined):AID2013, AID2026]; format: functional
T5 sequence (Q9HC97 whole entry): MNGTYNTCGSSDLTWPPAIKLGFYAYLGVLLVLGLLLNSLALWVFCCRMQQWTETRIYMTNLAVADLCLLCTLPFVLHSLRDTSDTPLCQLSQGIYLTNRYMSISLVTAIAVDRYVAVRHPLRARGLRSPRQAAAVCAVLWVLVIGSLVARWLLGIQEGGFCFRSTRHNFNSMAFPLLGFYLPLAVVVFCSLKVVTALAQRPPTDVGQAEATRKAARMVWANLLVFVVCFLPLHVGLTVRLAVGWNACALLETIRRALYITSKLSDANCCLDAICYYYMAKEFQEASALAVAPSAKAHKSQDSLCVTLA

Cannabinoid receptor 2 [9] = target: T6, Cannabinoid receptor 2 (Homo sapiens, UniProt P34972); experiment: SAR analysis of antagonists of the Cannabinoid Receptor 2 using an Image-Based Assay. [Related pubchem assays (depositor defined):AID2013, AID2026]; format: functional
T6 sequence (P34972 whole entry): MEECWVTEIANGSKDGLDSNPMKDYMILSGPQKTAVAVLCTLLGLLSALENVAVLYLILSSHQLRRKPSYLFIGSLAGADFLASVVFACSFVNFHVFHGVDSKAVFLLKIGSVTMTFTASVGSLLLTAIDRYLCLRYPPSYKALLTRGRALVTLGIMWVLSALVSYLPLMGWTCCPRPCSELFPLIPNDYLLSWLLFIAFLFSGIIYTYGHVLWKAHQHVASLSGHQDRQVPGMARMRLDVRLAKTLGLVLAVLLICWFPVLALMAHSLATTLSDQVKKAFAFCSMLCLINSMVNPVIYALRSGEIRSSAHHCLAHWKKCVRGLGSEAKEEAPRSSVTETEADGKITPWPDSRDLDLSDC

Cannabinoid receptor 1 [10] = target: T4, Cannabinoid receptor 1; experiment: SAR analysis of agonists of the Cannabinoid Receptor 1 using an Image-Based Assay - Set 2. [Related pubchem assays (depositor defined):AID2013, AID2026]; format: functional
[11] = target: T5, G-protein coupled receptor 35; experiment: SAR analysis of Antagonists of the GPR35 Receptor using an Image-Based Assay - Set 3. [Related pubchem assays (depositor defined):AID2013, AID2026]; format: functional
[12] = target: T3, G-protein coupled receptor 55; experiment: GPR55 antagonist potency of analogs, SAR follow-up, imaging, U2OS, beta-arrestin-GFP, LPI agonist, set 2 (AID 2820); format: functional
Cannabinoid receptor 2 [13] = target: T6, Cannabinoid receptor 2; experiment: SAR analysis of agonists of the Cannabinoid Receptor 2 using an Image-Based Assay. [Related pubchem assays (depositor defined):AID2013, AID2026]; format: functional
[14] = target: T5, G-protein coupled receptor 35; experiment: SAR analysis of Agonists of the GPR35 Receptor using an Image-Based Assay - Set 4. [Related pubchem assays (depositor defined):AID2013, AID2026]; format: functional
Cannabinoid receptor 1 [15] = target: T4, Cannabinoid receptor 1; experiment: SAR analysis of agonists of the Cannabinoid Receptor 1 using an Image-Based Assay - Set 4. [Related pubchem assays (depositor defined):AID2013, AID2026]; format: functional
[16] = target: T5, G-protein coupled receptor 35; experiment: SAR analysis of Antagonists of the GPR35 Receptor using an Image-Based Assay - Set 6. [Related pubchem assays (depositor defined):AID2013, AID2026]; format: functional
Cannabinoid receptor 1 [17] = target: T4, Cannabinoid receptor 1; experiment: SAR analysis of antagonists of the Cannabinoid Receptor 1 using an Image-Based Assay - Set 4. [Related pubchem assays (depositor defined):AID2013, AID2026]; format: functional
[18] = target: T3, G-protein coupled receptor 55; experiment: SAR Analysis of Selective Antagonists of GPR55 using an Image-Based Assay - Set 4. [Related pubchem assays (depositor defined):AID2013, AID2026]; format: functional
Cannabinoid receptor 2 [19] = target: T6, Cannabinoid receptor 2; experiment: SAR analysis of antagonists of the Cannabinoid Receptor 2 using an Image-Based Assay - Set 3. [Related pubchem assays (depositor defined):AID2013, AID2026]; format: functional
Cannabinoid receptor 2 [20] = target: T6, Cannabinoid receptor 2; experiment: SAR analysis of agonists of the Cannabinoid Receptor 2 using an Image-Based Assay - Set 3. [Related pubchem assays (depositor defined):AID2013, AID2026]; format: functional
[21] = target: T7, Type-1 angiotensin II receptor (Homo sapiens, UniProt P30556); experiment: AT1 receptor agonists, dose response, selectivity assay for APJ receptor agonist project, cell-based, uHTS hits (AID 488865); format: functional;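 further: beta-arrestin recruitment to AT1 measured by enzyme fragment complementation luminescence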
T7 sequence (P30556 whole entry): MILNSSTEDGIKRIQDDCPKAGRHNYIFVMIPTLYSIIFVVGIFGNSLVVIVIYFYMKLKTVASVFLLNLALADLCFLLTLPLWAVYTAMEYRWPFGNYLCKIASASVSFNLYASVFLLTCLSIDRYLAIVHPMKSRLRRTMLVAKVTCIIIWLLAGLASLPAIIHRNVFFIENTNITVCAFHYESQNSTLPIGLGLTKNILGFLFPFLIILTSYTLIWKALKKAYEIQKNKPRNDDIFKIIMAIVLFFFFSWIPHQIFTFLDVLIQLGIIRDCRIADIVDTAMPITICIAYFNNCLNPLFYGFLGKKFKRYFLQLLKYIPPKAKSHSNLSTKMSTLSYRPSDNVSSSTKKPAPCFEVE

[22] = target: T8, DNA repair and recombination protein RAD54-like (Homo sapiens, UniProt Q92698); experiment: inhibitors of human RAD54 branch migration, confirmation, biochemical, fluorescence, cherry-picked samples, dose series (AID 651657); format: functional
T8 sequence (Q92698 whole entry): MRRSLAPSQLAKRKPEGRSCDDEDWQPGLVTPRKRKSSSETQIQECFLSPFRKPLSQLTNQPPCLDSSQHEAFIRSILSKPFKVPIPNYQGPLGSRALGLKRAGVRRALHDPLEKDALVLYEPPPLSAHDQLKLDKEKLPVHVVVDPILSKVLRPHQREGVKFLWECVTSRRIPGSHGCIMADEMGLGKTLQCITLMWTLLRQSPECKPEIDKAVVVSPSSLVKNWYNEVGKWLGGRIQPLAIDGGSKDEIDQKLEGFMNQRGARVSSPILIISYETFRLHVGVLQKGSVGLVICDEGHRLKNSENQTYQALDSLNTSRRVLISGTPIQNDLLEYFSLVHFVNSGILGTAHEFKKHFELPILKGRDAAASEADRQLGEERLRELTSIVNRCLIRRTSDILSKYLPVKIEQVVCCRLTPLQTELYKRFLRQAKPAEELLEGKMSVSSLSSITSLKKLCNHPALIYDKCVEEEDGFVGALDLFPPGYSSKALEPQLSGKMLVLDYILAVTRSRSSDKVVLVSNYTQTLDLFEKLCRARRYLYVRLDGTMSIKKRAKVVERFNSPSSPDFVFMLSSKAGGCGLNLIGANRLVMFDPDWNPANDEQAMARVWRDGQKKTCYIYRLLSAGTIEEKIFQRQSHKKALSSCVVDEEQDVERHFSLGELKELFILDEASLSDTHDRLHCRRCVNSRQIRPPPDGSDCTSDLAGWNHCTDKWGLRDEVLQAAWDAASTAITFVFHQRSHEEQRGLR

Kallikrein-7 = Kallikrein-7 (Homo sapiens, UniProt P49862); experiment: Fluorescence Intensity-based biochemical primary high throughput dose response assay to identify activators of kallikrein-7 (K7) zymogen.
Sequence of Kallikrein-7 (P49862 whole entry): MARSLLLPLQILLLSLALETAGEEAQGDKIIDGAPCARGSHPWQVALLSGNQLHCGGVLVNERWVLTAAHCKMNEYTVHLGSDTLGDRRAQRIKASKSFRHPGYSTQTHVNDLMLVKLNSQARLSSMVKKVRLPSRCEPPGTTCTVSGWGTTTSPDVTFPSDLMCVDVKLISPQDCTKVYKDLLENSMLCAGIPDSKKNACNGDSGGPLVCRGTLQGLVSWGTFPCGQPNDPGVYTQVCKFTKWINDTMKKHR

Vibrio harveyi = experiment: inhibitors of AI-2 quorum sensing in V. harveyi, dose response, LuxS, LuxPQ, dry powder, set 2 (AID 493072); format: functional, organism-based

SMILES: CC(=O)NC(=S)NNC(=O)c1ccc(Br)cc1
IC50 (Bcl-2-related protein A1): > 20 µM (inactive)
IC50 [1]: 14.9 µM (active)
IC50 [2]: 17 µM (active)
AC50 [3]: > 52 µM (inactive)
AC50 (cells [4]): 46.3 µM (active)
AC50 (cells [5]): > 52 µM (inactive)

IC50 [6]: 1.8 µM (active)
IC50 (Cannabinoid receptor 1 [7]): 8.82 µM (active)
EC50 [8]: > 32 µM (inactive)
IC50 (Cannabinoid receptor 2 [9]): > 32 µM (inactive)
EC50 (Cannabinoid receptor 1 [10]): > 32 µM (inactive)
IC50 [11]: > 32 µM (inactive)
IC50 [12]: 1.06 µM (active)
EC50 (Cannabinoid receptor 2 [13]): 30.2 µM (inactive)
SMILES: COc1ccc(-c2c(-c3ccc(O)cc3O)n[nH]c2C(F)(F)F)cc1

EC50 [14]: > 32 µM (inactive)
EC50 (Cannabinoid receptor 1 [15]): > 32 µM (inactive)
IC50 [16]: > 32 µM (inactive)
IC50 (Cannabinoid receptor 1 [17]): 4.09 µM (active)
IC50 [18]: 29 µM (inactive)
IC50 (Cannabinoid receptor 2 [19]): > 32 µM (inactive)
EC50 (Cannabinoid receptor 2 [20]): > 32 µM (inactive)
SMILES: O=C(Nc1ccc(S(=O)(=O)Nc2nccs2)cc1)c1cc(-c2cccs2)nc2ccccc12

EC50 [21]: > 100 µM (inactive)
AC50 [22]: 9.49 µM (active)
EC50 (Kallikrein-7): > 69.5 µM (inactive)
SMILES: COc1cccc2sc3cc(NCC[C@@H]4CCCN4C)ccc3c(=O)c12

SMILES: Cc1cccc(NC(=O)c2ccc(Oc3ccccc3)cc2)n1
AC50 (Vibrio harveyi): 15.2 µM (active)
